Test results from US11175296B2, “Methods of diagnosing and treating cancer comprising ME1” (Washington University, priority 2016, dated 2021).
Where a SMILES comes first, the peptide text is derived from it. The star is where a group is joined. Cbz = O=C(OCc1ccccc1)*; CH2F = FC*

What was measured:
[1] = tested on: SYO-1 and FUJI synovial sarcoma (SS) cell lines; assay: Pretreatment before glucose deprivation, protection from cell death (PI FACS); assay type: cell-based
Method: During the routine cell culture splitting procedure, cell lines were plated in 6 well plates at 200,000 cells in 2 mL media. Samples were incubated at 37° C. for duration of experiment. Samples were washed with PBS and detached with 0.05% Trypsin/EDTA. Aliquots were diluted 1:2 with Trypan Blue (Sigma) and a viable cell count was obtained using a hemacytometer. For glucose and glutamine deprivation experiments, 200,000 cells were plated in standard media and incubated overnight. Samples were washed 3 times with 1×DPBS (Gibco), and the media was changed to DMEM (control samples) or glucose/glutamine free DMEM (experimental samples). Cell counts were taken as previously described at 2, 4, 6, and 8 hours after the media was changed, and normalized to cell counts taken from growth samples counted at the time the media was changed.
(§1) For FACS analysis, cell lines were plated at 200,000 cells per well, and incubated in various culture conditions. Media was collected in a FACS tube and samples were washed with PBS. The PBS was transferred into the FACS tube, and 0.5 mL 0.05% Trypsin/EDTA was added to each well. Samples were incubated for 5 minutes at 37° C., and diluted with 0.5 mL complete media before being transferred to the FACS tube. Wells were washed once with PBS, transferred to the FACS tube, and centrifuged at 800 g for 5 minutes at room temperature. The supernatant was aspirated off, and pellets were resuspended in 200 μL PBS (unstained control samples used for gating) or 200 μL of 1 μg/mL propidium iodide dissolved in PBS. Samples were run on a FAScan instrument and fluorescence analyzed on the Blue FL2 channel. Data was further analyzed using FloJo software.
Cell viability was determined in tissue culture experiments by the trypan blue dye exclusion test. For the evaluation of glucose deprivation, cell lines were plated in a 6-well format at 200,000 cells per well on day 1. SYO was cultured and plated in Dulbecco's Modified Eagle Medium (DMEM) with 10% FBS and penicillin/streptomycin (include additional glucose concentration), which FUJI was cultured in RPMI medium with 10% FBS and penicillin/streptomycin. The following day, glucose-containing media was removed, and each well was washed with 1-2 mL of phosphate buffered saline (PBS) three times to ensure elimination of residual glucose. Glucose-free media was then replaced in each well for the duration of the experiment. At the end point, the glucose-free media was removed and each well washed with 1 mL of PBS. One-half milliliter of trypsin 0.05% was then applied to each well, later aggressively resuspended in 0.5 mL of media for a total cell volume of 1 mL. Twenty microliters of each well was then counted via hemocytometer, excluding those non-viable cells that were positive for trypan blue uptake and/or fragmented.
For the evaluation of glucose deprivation alone and under additional conditions, cell lines were plated in a 6-well format at 200,000 cells per well on day 1. SYO was cultured and plated in Dulbecco's Modified Eagle Medium (DMEM) with 10% FBS and penicillin/streptomycin (include additional glucose concentration), which FUJI was cultured in RPMI medium with 10% FBS and penicillin/streptomycin. The following day, glucose-containing media was removed, and each well was washed with 1-2 mL of phosphate buffered saline (PBS) three times to ensure elimination of residual glucose. Glucose-free media was then replaced in each well for the duration of the experiment. […]

[2] = tested on: SYO-1 and FUJI cell lines; assay: Treatment with G6PD inhibitor DHEA and DHEA analogs, cell death; assay type: cell-based; settings: over a course of 48 hours
Method: as §1
(§2) For the evaluation of glucose deprivation alone and under additional conditions, cell lines were plated in a 6-well format at 200,000 cells per well on day 1. SYO was cultured and plated in Dulbecco's Modified Eagle Medium (DMEM) with 10% FBS and penicillin/streptomycin (include additional glucose concentration), which FUJI was cultured in RPMI medium with 10% FBS and penicillin/streptomycin. […] Samples were then ran and fluorescence analyzed via Blue FL2 channel on a FAScan instrument. […]

[3] = tested on: SYO-1 xenograft tumor; assay: SYO-1 xenograft in nude athymic mice, tumor size; assay type: in vivo; settings: 1 mg/day for 12 days
Method: Sixty nude athymic mice (Nu/J homozygous Cat#002019, The Jackson Lab) were xenografted with 1×10^6 SYO-1 cells that had been resuspended in 1×PBS 30% Matrigel (Corning, Inc., Cat# CB-40234). Mice were anesthetized with 1-2% isofluorane and injected at the left flank. The mice were observed until each tumor size was 100 mm3 by caliper measurement, at which point each individual mouse began daily injections of DHEA 1 mg/30 uL ( ), SWV-49s 3.75 mM, SWV-273.75 mM, SV-119 3.75 mM, SWV-27/SV-119 3.75 mM, or control vehicle Cremiphor. All agents were suspended in Cremiphor. Treatment or placebo injections continued for a total of 12 days. Daily caliper and weight measurements for a total of 30 days were undertaken for each cohort. Mice were sacrificed appropriately by “ ” guidelines and after the conclusion of the in vivo experiment.

[4] = tested on: SYO-1 and FUJI cell lines; assay: Erastin / sigma-2 erastin treatment, cell death; assay type: cell-based; settings: in as little as 8 hours, compared to control lines SKLMS-1 and MG63
Method: as §1, §2

[5] = Phase I open-label study of olaratumab and doxorubicin in patients with advanced soft tissue sarcoma (PK, DDI, safety)
Method: Patients with metastatic or locally advanced STS not amenable to treatment with surgery or curative radiotherapy, aged years with an ECOG PS of 0-2 and documented LVE fraction ≥50% were included. The primary objective was to assess the effect of Olara on the PK of Dox. Secondary objectives were to further characterize the PK and safety profiles of Olara alone and in combination with Dox. Drug-drug interaction (DDI) was assessed in 21-day cycles, where patients received each drug alone (Cycle 1) then in combination (Cycle 2). In Cycles 3-8, patients with clinical benefit could continue treatment with Olara+Dox. 15-mg/kg Olara was given IV over ˜60 min; 75-mg/m^2 Dox was given IV over ˜15 min.

[6] = pretreatment one hour prior to glucose-free media change

Which “protection from cell death under glucose deprivation” value (“protection from cell death” below) ([1]; 10 mM, pretreated one hour prior to glucose deprivation, 2 and 6 hours) does the source give for `CC(=O)N[C@@H](CS)C(=O)O` [NAC] here?
The value was “protection from cell death was noted”.

Which cell death [2] does the source give for `C[C@]12CC[C@H](O)CC1=CC[C@@H]1[C@@H]2CC[C@]2(C)C(=O)CC[C@@H]12` [DHEA, dehydroepiandrosterone] here?
The cell death was “varying but significant cell death”.

What about the tumor size [3] of the same compound?
The tumor size was “dramatic decrease in tumor size”.

And the “tolerability of dose and regimen” value ([3]; murine model)?
The value was “well-tolerated”.

For `CC(NC(=O)C(NC(=O)OCc1ccccc1)C(C)C)C(=O)NC(CC(=O)O)C(=O)CF` (stereo not drawn) [ZVAD] (Cbz-Val-Ala-Asp-CH2F; configuration not given here), which “protection from cell death” value [1, 6] is on record?
Its value is “did not result in protection from cell death”.

For `CN1C(=O)C(Cc2c[nH]c3ccccc23)NC1=S` (stereo not shown) [necrostatin], which “protection from cell death” value [1, 6] is on record?
Its value is “did not result in protection from cell death”.

For `CCOc1ccccc1-n1c(C(C)N2CCN(C(=O)COc3ccc(Cl)cc3)CC2)nc2ccccc2c1=O` (stereo not shown) [erastin], which cell death [4] is on record?
Its cell death is “approximately 40%”.

With `Cc1c(O)c(=O)ccn1C` [deferiprone] as the compound, how does the “protection from cell death” value ([1]; pretreated one hour prior to glucose deprivation, acute time course of 2-6 hours) read?
Its value is “significant protection from cell death”.

Which “protection from cell death” value [1, 6] does the source give for `CCOC(=O)c1ccc(NC2CCCCC2)c(N)c1` [ferrostatin] here?
Its value is “significant protection from glucose-deprivation mediated cell death”.

What does the source list for Olaratumab?
effect on systemic exposure to Dox ([5]; IV infusion, both agents given in combination): did not have a clinically relevant effect; CL ([5]; human, in vivo): 0.0218 L/h; mean CL ([5]; human, in vivo): 0.0259 L/h; mean Cmax ([5]; human, in vivo): 393 µg/mL; median tmax post start of infusion ([5]; human, in vivo): ~2.8 h; time of Cmax post start of infusion ([5]; human, in vivo): ~2 h; mean Cmax ([5]; human, in vivo, iv, 15 mg/kg): 293 µg/mL
